Laboratory results from PubChem BioAssay AID2060508 (Molecular Pharmacology Branch, DTP, NCI, 2025).
pIC50: −log10 of the molar value.

Tested on: 454973-116-R2-J3-PDC spheroids, viability, % test/control
Assay: Anticancer human tumor 454973-116-R2-J3-PDC patient-derived pancreatic carcinoma cell line growth inhibition [GQUAD]
Details: spheroids with HUVEC and MSC; for pIC50: curve of first compound; for viability, T/C: stronger effect = lower value
Procedure, shortened: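 Viability of tumor cells grown as complex spheroids with endothelial and stromal cells, exposed to drug combinations. Top concentration at or near clinical Cmax (else 10 microM), diluted in half-log increments.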

[1] = second compound 0.0316 µM, first compound 0.0316 µM
[2] = second compound 0.0316 µM, first compound 0.316 µM
[3] = second compound 0.1 µM, first compound 0.0316 µM
[4] = second compound 0.1 µM, first compound 0.316 µM
[5] = second compound 0.316 µM, first compound 0.0316 µM
[6] = second compound 0.316 µM, first compound 0.316 µM
[7] = second compound 1 µM, first compound 0.0316 µM
[8] = second compound 1 µM, first compound 0.316 µM
[9] = second compound 3.16 µM, first compound 0.0316 µM
[10] = second compound 3.16 µM, first compound 0.316 µM
[11] = second compound 10 µM, first compound 0.0316 µM
[12] = second compound 10 µM, first compound 0.316 µM
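Note: spheroids exposed to compounds for seven days.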
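Throughout, for viability, T/C: 100% = DMSO vehicle control viability.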

With `C=CC(=O)N1CCN(c2nc(=O)n(-c3c(C)ccnc3C(C)C)c3nc(-c4c(O)cccc4F)c(F)cc23)C(C)C1` (centres undefined) + CN(C)c1ccc(Nc2c3ccc(NC(=O)CCN4CCCC4)cc3nc3cc(NC(=O)CCN4CCCC4)ccc23)cc1 the pIC50 (second compound 0.0316 µM) was less than 5.00, the pIC50 (second compound 0.1 µM) was less than 5.00 and the pIC50 (second compound 0.316 µM) was less than 5.00. For the same compound, the pIC50 (second compound 1 µM) was less than 5.00, the pIC50 (second compound 3.16 µM) was less than 5.00 and the pIC50 (second compound 10 µM) was less than 5.00. For the same compound, the viability, T/C [1] was 112%, the viability, T/C (second compound 0.0316 µM, first compound 0.1 µM) was 103% and the viability, T/C [2] was 110%. For the same compound, the viability, T/C (second compound 0.0316 µM, first compound 1 µM) was 112%, the viability, T/C (second compound 0.0316 µM, first compound 3.16 µM) was 102% and the viability, T/C (second compound 0.0316 µM, first compound 10 µM) was 115%. For the same compound, the viability, T/C [3] was 103%, the viability, T/C (second compound 0.1 µM, first compound 0.1 µM) was 98.9% and the viability, T/C [4] was 107%. It also gave a viability, T/C (second compound 0.1 µM, first compound 1 µM) of 107%, a viability, T/C (second compound 0.1 µM, first compound 3.16 µM) of 102% and a viability, T/C (second compound 0.1 µM, first compound 10 µM) of 112%. It also gave a viability, T/C [5] of 107%, a viability, T/C (second compound 0.316 µM, first compound 0.1 µM) of 103% and a viability, T/C [6] of 103%. For the same compound, the viability, T/C (second compound 0.316 µM, first compound 1 µM) was 110%, the viability, T/C (second compound 0.316 µM, first compound 3.16 µM) was 99.5% and the viability, T/C (second compound 0.316 µM, first compound 10 µM) was 111%. The viability, T/C [7] was 97.3%, the viability, T/C (second compound 1 µM, first compound 0.1 µM) was 91.8% and the viability, T/C [8] was 104%. The viability, T/C (second compound 1 µM, first compound 1 µM) was 86.7%, the viability, T/C (second compound 1 µM, first compound 3.16 µM) was 102% and the viability, T/C (second compound 1 µM, first compound 10 µM) was 100%. For the same compound, the viability, T/C [9] was 97.7%, the viability, T/C (second compound 3.16 µM, first compound 0.1 µM) was 90.7% and the viability, T/C [10] was 93.8%. For the same compound, the viability, T/C (second compound 3.16 µM, first compound 1 µM) was 77.7%, the viability, T/C (second compound 3.16 µM, first compound 3.16 µM) was 103% and the viability, T/C (second compound 3.16 µM, first compound 10 µM) was 105%. For the same compound, the viability, T/C [11] was 83.4%, the viability, T/C (second compound 10 µM, first compound 0.1 µM) was 77.9% and the viability, T/C [12] was 82.4%. For the same compound, the viability, T/C (second compound 10 µM, first compound 1 µM) was 68.5%, the viability, T/C (second compound 10 µM, first compound 3.16 µM) was 79% and the viability, T/C (second compound 10 µM, first compound 10 µM) was 77.5%.

Work on `CC[C@@]1(O)C(=O)OCc2c1cc1n(c2=O)Cc2cc3c(CN(C)C)c(O)ccc3nc2-1` + CN(C)c1ccc(Nc2c3ccc(NC(=O)CCN4CCCC4)cc3nc3cc(NC(=O)CCN4CCCC4)ccc23)cc1 yielded a pIC50 (second compound 0.0316 µM) of 7.34, a pIC50 (second compound 0.1 µM) of 7.40 and a pIC50 (second compound 0.316 µM) of 7.52. It also gave a pIC50 (second compound 1 µM) of 7.49, a pIC50 (second compound 3.16 µM) of 7.52 and a pIC50 (second compound 10 µM) of 7.54. The viability, T/C (second compound 0.0316 µM, first compound 0.000999 µM) was 97.5%, the viability, T/C (second compound 0.0316 µM, first compound 0.00316 µM) was 97.7% and the viability, T/C (second compound 0.0316 µM, first compound 0.00999 µM) was 99.5%. For the same compound, the viability, T/C [1] was 64%, the viability, T/C (second compound 0.0316 µM, first compound 0.0999 µM) was 18.2% and the viability, T/C [2] was 20.1%. The viability, T/C (second compound 0.1 µM, first compound 0.000999 µM) was 111%, the viability, T/C (second compound 0.1 µM, first compound 0.00316 µM) was 102% and the viability, T/C (second compound 0.1 µM, first compound 0.00999 µM) was 88.4%. The viability, T/C [3] was 60.6%, the viability, T/C (second compound 0.1 µM, first compound 0.0999 µM) was 18.2% and the viability, T/C [4] was 20.5%. For the same compound, the viability, T/C (second compound 0.316 µM, first compound 0.000999 µM) was 101%, the viability, T/C (second compound 0.316 µM, first compound 0.00316 µM) was 111% and the viability, T/C (second compound 0.316 µM, first compound 0.00999 µM) was 82.1%. The viability, T/C [5] was 51.3%, the viability, T/C (second compound 0.316 µM, first compound 0.0999 µM) was 23.4% and the viability, T/C [6] was 23%. The viability, T/C (second compound 1 µM, first compound 0.000999 µM) was 99.3%, the viability, T/C (second compound 1 µM, first compound 0.00316 µM) was 89.8% and the viability, T/C (second compound 1 µM, first compound 0.00999 µM) was 87.1%. It also gave a viability, T/C [7] of 51.7%, a viability, T/C (second compound 1 µM, first compound 0.0999 µM) of 20.3% and a viability, T/C [8] of 21.7%. For the same compound, the viability, T/C (second compound 3.16 µM, first compound 0.000999 µM) was 98.7%, the viability, T/C (second compound 3.16 µM, first compound 0.00316 µM) was 82.4% and the viability, T/C (second compound 3.16 µM, first compound 0.00999 µM) was 83%. For the same compound, the viability, T/C [9] was 47.7%, the viability, T/C (second compound 3.16 µM, first compound 0.0999 µM) was 27.6% and the viability, T/C [10] was 23.4%. The viability, T/C (second compound 10 µM, first compound 0.000999 µM) was 83.9%, the viability, T/C (second compound 10 µM, first compound 0.00316 µM) was 71.8% and the viability, T/C (second compound 10 µM, first compound 0.00999 µM) was 61.5%. The viability, T/C [11] was 53.6%, the viability, T/C (second compound 10 µM, first compound 0.0999 µM) was 31% and the viability, T/C [12] was 25.7%.
